Laboratory results as given in US6310210A, “Camptothecin derivatives” (Kabushiki Kaisha Yakult Honsha, priority 1997, dated 2001).
In brackets after ≈: the same amount, converted by molar mass.

Experiments:
[1] = Solubility of each hydrochloride in purified water; type: physicochemical
Description: A corresponding camptothecin-21-(2-dimethylamino) ethylamide derivative (100-200 mg) was added with an aqueous 0.1 N HCl solution (1.05 eq.) and dissolved, if necessary, further by adding purified water. The solution was filtered using MILLEX-GV ([…] Filter Unit), and the filtrate was lyophilized to give the desired hydrochloride.
Table 1: Solubility of each hydrochloride in purified water

mouse leukemia L1210 = test: Anti-tumor activity: life prolonging effect in mice transplanted intraperitoneally with mouse leukemia L1210 (T/C%); type: in vivo; settings: i.p. day 1, 5 and 9
Description: 5×10^5 cells of mouse leukemia L1210 were transplanted intraperitoneally to a group of six female CDP1 mice (7 weeks old, body weight 17-19 g). A test substance was administered intraperitoneally on day 1, 5 and 9, and its life prolonging effect was observed. In a case of the administration of a test substance as an acid addition salt, it was dissolved in purified water. The total administration amount was 1.56-400 mg/kg. The anti-tumor activity was expressed by the value (T/C%) in which the ratio of the mean survival days of a drug administered group (T) to the mean survival days of a not administered group (C) is multiplied by 100.

[2] = Stability test in water at each pH (phosphate buffer, HPLC); type: physicochemical; settings: for Amount of the compound in test solution: room temperature (about 26° C.)
Description: 1) Preparation of calibration curve:
1.05 mg of the compound 1 and 1.10 mg of the compound A (Note) were measured, dissolved in acetonitrile 10 ml to give a standard solution. 20 μl of the standard solution was tested by HPLC method (procedure condition 1). The peak area of the compound 1 and the compound A (Note), which is obtained from the chromatograph of the standard solution is measured by an automatic integration method, and the obtained area is plotted against an amount of the compound 1 and the compound A (2.1 μg and 2.2 μg) by 20 μl to prepare a calibration curve.
[HPLC method, procedure condition 1]
Column: Inertsil ODS-3 (5-250), 40 deg.
Mobile phase: 0.01 M potassium dihydrogenphosphate-acetonitrile (3:1)
Detection: UV absorptiometer (254 nm)
About 1 mg (×3) of the compound 1 were measured, dissolved adding a phosphate buffer 10 ml of pH 10.0, 7.0 or 5.4, stirred at room temperature (about 26° C.) to make a test solution. As to each 20 μl of the test solution at the time of dissolution, 3 hr later and 24 hr later, the tests were carried out by the HPLC method (procedure condition 1). The amounts of the compound 1 were measured from the obtained area. The amounts of the compound A in each pH were measured.
The amounts (μg/ml) of the compound 1 and the compound A at the time of dissolution, 3 hr later and 24 hr later in each pH are shown in Table 7.

CCc1c2c(nc3ccccc13)-c1cc([C@@](O)(CC)C(=O)NCCN(C)C)c(COC(=O)NC)c(=O)n1C2 [Compound 1, 7-Ethyl-17-methylcarbamoyloxycamptothecin-21-(2-dimethylamino)ethylamide]
solubility [1]: ≥ 50000 µg/mL
Anti-tumor activity (T/C%) (mouse leukemia L1210; Table 2, total dose 3.13 mg/kg): 97%
Anti-tumor activity (T/C%) (mouse leukemia L1210; Table 2, total dose 6.25 mg/kg): 97%
Anti-tumor activity (T/C%) (mouse leukemia L1210; Table 2, total dose 12.5 mg/kg): 95%
Anti-tumor activity (T/C%) (mouse leukemia L1210; Table 2, total dose 25 mg/kg): 97%
Anti-tumor activity (T/C%) (mouse leukemia L1210; Table 2, total dose 50 mg/kg): 97%
Anti-tumor activity (T/C%) (mouse leukemia L1210; Table 2, total dose 100 mg/kg): 139%
Anti-tumor activity (T/C%) (mouse leukemia L1210; Table 2, total dose 200 mg/kg): 145%
Amount of the compound in test solution ([2]; pH 5.4, 3 hr later): 118 µg/mL
Amount of the compound in test solution ([2]; pH 5.4, 24 hr later): 118 µg/mL
Amount of the compound in test solution ([2]; pH 5.4, at the time of dissolution): 118 µg/mL
Amount of the compound in test solution ([2]; pH 7.0, 3 hr later): 105 µg/mL
Amount of the compound in test solution ([2]; pH 7.0, 24 hr later): 105 µg/mL
Amount of the compound in test solution ([2]; pH 7.0, at the time of dissolution): 105 µg/mL
Stability in aqueous solution (in words) ([2]; pH 7.0 and 5.4, room temperature): stably present at room temperature
Amount of the compound in test solution ([2]; pH 10.0, 3 hr later): 106 µg/mL
Amount of the compound in test solution ([2]; pH 10.0, 24 hr later): 97 µg/mL
Amount of the compound in test solution ([2]; pH 10.0, at the time of dissolution): 109 µg/mL
remaining at 24 h ([2]; phosphate buffer, pH 10.0, after 24 hr, read-out: remained in the aqueous solution): 89%

CCc1c2c(nc3ccccc13)-c1cc([C@@](O)(CC)C(=O)NCCN(C)C)c(COC(=O)Nc3ccc(F)cc3)c(=O)n1C2 [Compound 10, 7-Ethyl-17-(4-fluorophenylcarbamoyloxy)-camptothecin-21-(2-dimethylamino)ethylamide]
solubility [1]: ~7000 µg/mL (≈ 11.6 mM)
Anti-tumor activity (T/C%) (mouse leukemia L1210; Table 4, total dose 3.13 mg/kg): 115%
Anti-tumor activity (T/C%) (mouse leukemia L1210; Table 4, total dose 6.25 mg/kg): 118%
Anti-tumor activity (T/C%) (mouse leukemia L1210; Table 4, total dose 12.5 mg/kg): 123%
Anti-tumor activity (T/C%) (mouse leukemia L1210; Table 4, total dose 25 mg/kg): 136%
Anti-tumor activity (T/C%) (mouse leukemia L1210; Table 4, total dose 50 mg/kg): 174%
Anti-tumor activity (T/C%) (mouse leukemia L1210; Table 4, total dose 100 mg/kg): 221%
Anti-tumor activity (T/C%) (mouse leukemia L1210; Table 4, total dose 200 mg/kg): 310%
